Source: PubChem BioAssay AID1259407 (Chemical Carcinogenesis Research Information System (CCRIS), 2018)
Calls of active or inactive are those of the source. No rule for the calls is given here.

Test system: CCRIS mutagenicity, Ames/micronucleus/aberration tests
Experiment: CCRIS mutagenicity studies
[1] = Test System: AMES SALMONELLA TYPHIMURIUM, Strain/Indicator: TA98, Metabolic Activation: HAMSTER, LIVER, S-9, AROCLOR 1254 (10%), Method: PREINCUBATION
[2] = Test System: AMES SALMONELLA TYPHIMURIUM, Strain/Indicator: TA98, Metabolic Activation: NONE, Method: PREINCUBATION
[3] = Test System: AMES SALMONELLA TYPHIMURIUM, Strain/Indicator: TA98, Metabolic Activation: NONE, Method: STANDARD PLATE
[4] = Test System: AMES SALMONELLA TYPHIMURIUM, Strain/Indicator: TA98, Metabolic Activation: RAT, LIVER, S-9, AROCLOR 1254 (10%), Method: PREINCUBATION
[5] = Test System: AMES SALMONELLA TYPHIMURIUM, Strain/Indicator: TA100, Metabolic Activation: HAMSTER, LIVER, S-9, AROCLOR 1254 (10%), Method: PREINCUBATION
[6] = Test System: AMES SALMONELLA TYPHIMURIUM, Strain/Indicator: TA100, Metabolic Activation: NONE, Method: PREINCUBATION
[7] = Test System: AMES SALMONELLA TYPHIMURIUM, Strain/Indicator: TA100, Metabolic Activation: NONE, Method: STANDARD PLATE
[8] = Test System: AMES SALMONELLA TYPHIMURIUM, Strain/Indicator: TA1535, Metabolic Activation: NONE, Method: PREINCUBATION
[9] = Test System: AMES SALMONELLA TYPHIMURIUM, Strain/Indicator: TA100, Metabolic Activation: RAT, LIVER, S-9, AROCLOR 1254, Method: STANDARD PLATE
[10] = Test System: MOUSE LYMPHOMA, Strain/Indicator: L5178Y (TK+/TK-), Metabolic Activation: NONE, Method: SUSPENSION/PLATE
[11] = Test System: MOUSE LYMPHOMA, Strain/Indicator: L5178Y (TK+/TK-), Metabolic Activation: RAT, LIVER, S-9, AROCLOR 1254, Method: SUSPENSION/PLATE

With `CC1=CC(C)(C)Nc2ccccc21` the mutagenic call [1] was “inactive; negative”, the mutagenic call [2] was “inactive; negative” and the mutagenic call [3] was “inactive; negative”. For the same compound, the mutagenic call [4] was “inactive; negative”, the mutagenic call (Test System: AMES SALMONELLA TYPHIMURIUM, Strain/Indicator: TA98, Metabolic Activation: S-9, Method: STANDARD PLATE) was “inactive; negative” and the mutagenic call [5] was “inactive; negative”. For the same compound, the mutagenic call [6] was “inactive; negative”, the mutagenic call [7] was “inactive; negative” and the mutagenic call (Test System: AMES SALMONELLA TYPHIMURIUM, Strain/Indicator: TA100, Metabolic Activation: RAT, LIVER, S-9, AROCLOR 1254 (10%), Method: PREINCUBATION) was “inactive; negative”. The mutagenic call (Test System: AMES SALMONELLA TYPHIMURIUM, Strain/Indicator: TA100, Metabolic Activation: S-9, Method: STANDARD PLATE) was “inactive; negative”, the mutagenic call (Test System: AMES SALMONELLA TYPHIMURIUM, Strain/Indicator: TA1535, Metabolic Activation: HAMSTER, LIVER, S-9, AROCLOR 1254 (10%), Method: PREINCUBATION) was “inactive; negative” and the mutagenic call [8] was “inactive; negative”. For the same compound, the mutagenic call (Test System: AMES SALMONELLA TYPHIMURIUM, Strain/Indicator: TA1535, Metabolic Activation: RAT, LIVER, S-9, AROCLOR 1254 (10%), Method: PREINCUBATION) was “inactive; negative”, the mutagenic call (Test System: AMES SALMONELLA TYPHIMURIUM, Strain/Indicator: TA1537, Metabolic Activation: HAMSTER, LIVER, S-9, AROCLOR 1254 (10%), Method: PREINCUBATION) was “inactive; negative” and the mutagenic call (Test System: AMES SALMONELLA TYPHIMURIUM, Strain/Indicator: TA1537, Metabolic Activation: NONE, Method: PREINCUBATION) was “inactive; negative”. For the same compound, the mutagenic call (Test System: AMES SALMONELLA TYPHIMURIUM, Strain/Indicator: TA1537, Metabolic Activation: RAT, LIVER, S-9, AROCLOR 1254 (10%), Method: PREINCUBATION) was “inactive; negative”.
In the case of `O=C1C=CC(=O)N1`, the mutagenic call (Test System: AMES SALMONELLA TYPHIMURIUM, Strain/Indicator: TA98, Metabolic Activation: HAMSTER, LIVER, S-9, AROCLOR 1254, Method: STANDARD PLATE) is reported as “active; positive”, the mutagenic call [3] is reported as “active; positive” and the mutagenic call (Test System: AMES SALMONELLA TYPHIMURIUM, Strain/Indicator: TA98, Metabolic Activation: RAT, LIVER, S-9, AROCLOR 1254, Method: STANDARD PLATE) is reported as “active; positive”. The mutagenic call (Test System: AMES SALMONELLA TYPHIMURIUM, Strain/Indicator: TA100, Metabolic Activation: HAMSTER, LIVER, S-9, AROCLOR 1254, Method: STANDARD PLATE) was “inactive; negative”, the mutagenic call [7] was “inactive; negative” and the mutagenic call [9] was “active; positive”. The mutagenic call [10] was “active; positive. reevaluation of results: inconclusive” and the mutagenic call [11] was “active; positive. reevaluation of results: positive”.
For `NC[N+](=O)[O-]`, the mutagenic call (Test System: AMES SALMONELLA TYPHIMURIUM, Strain/Indicator: TA100, Metabolic Activation: RAT, LIVER, S-9, AROCLOR 1254, Method: PREINCUBATION) was “inactive; negative” and the mutagenic call (Test System: AMES SALMONELLA TYPHIMURIUM, Strain/Indicator: TA1535, Metabolic Activation: RAT, LIVER, S-9, AROCLOR 1254, Method: PREINCUBATION) was “inactive; negative”.
In the case of `CC(C)N(CC(O)COc1cccc2ccccc12)N=O` (stereo not drawn), the mutagenic call (Test System: UDS HUMAN HEPATOCYTES, Strain/Indicator: THY INCORP, Metabolic Activation: NONE, Method: AUTORADIOGRAPHY) is reported as “active; positive” and the mutagenic call (Test System: UDS RAT HEPATOCYTES, Strain/Indicator: THY INCORP, Metabolic Activation: NONE, Method: AUTORADIOGRAPHY) is reported as “active; positive”.
`NO` was tested, and the mutagenic call (Test System: AMES SALMONELLA TYPHIMURIUM, Strain/Indicator: TA97, Metabolic Activation: HAMSTER, LIVER, S-9, AROCLOR 1254 (10 OR 30%), Method: PREINCUBATION) was “inactive; negative”, the mutagenic call (Test System: AMES SALMONELLA TYPHIMURIUM, Strain/Indicator: TA97, Metabolic Activation: NONE, Method: PREINCUBATION) was “inactive; negative” and the mutagenic call (Test System: AMES SALMONELLA TYPHIMURIUM, Strain/Indicator: TA97, Metabolic Activation: RAT, LIVER, S-9, AROCLOR 1254 (10 OR 30%), Method: PREINCUBATION) was “inactive; negative”. For the same compound, the mutagenic call [1] was “inactive; negative”, the mutagenic call (Test System: AMES SALMONELLA TYPHIMURIUM, Strain/Indicator: TA98, Metabolic Activation: HAMSTER, LIVER, S-9, AROCLOR 1254 (30%), Method: PREINCUBATION) was “inactive; negative” and the mutagenic call [2] was “inactive; negative”. For the same compound, the mutagenic call [4] was “inactive; negative”, the mutagenic call (Test System: AMES SALMONELLA TYPHIMURIUM, Strain/Indicator: TA98, Metabolic Activation: RAT, LIVER, S-9, AROCLOR 1254 (30%), Method: PREINCUBATION) was “inactive; negative” and the mutagenic call [5] was “inactive; negative”. The mutagenic call (Test System: AMES SALMONELLA TYPHIMURIUM, Strain/Indicator: TA100, Metabolic Activation: HAMSTER, LIVER, S-9, AROCLOR 1254 (30%), Method: PREINCUBATION) was “inactive; negative”, the mutagenic call [6] was “inactive; negative” and the mutagenic call (Test System: AMES SALMONELLA TYPHIMURIUM, Strain/Indicator: TA100, Metabolic Activation: RAT, LIVER, S-9, AROCLOR 1254 (10 OR 30%), Method: PREINCUBATION) was “inactive; negative”. The mutagenic call (Test System: AMES SALMONELLA TYPHIMURIUM, Strain/Indicator: TA102, Metabolic Activation: RAT, LIVER, S-9, AROCLOR 1254, Method: STANDARD PLATE) was “inactive; negative”, the mutagenic call (Test System: AMES SALMONELLA TYPHIMURIUM, Strain/Indicator: TA1535, Metabolic Activation: HAMSTER, LIVER, S-9, AROCLOR 1254 (10 OR 30%), Method: PREINCUBATION) was “inactive; negative” and the mutagenic call [8] was “inactive; negative”. The mutagenic call (Test System: AMES SALMONELLA TYPHIMURIUM, Strain/Indicator: TA1535, Metabolic Activation: RAT, LIVER, S-9, AROCLOR 1254 (10 OR 30%), Method: PREINCUBATION) was “inactive; negative”, the mutagenic call [10] was “active; positive” and the mutagenic call [11] was “active; positive”.
`O[C@H]1C=Cc2c(ccc3cc4c(cc23)[C@H](O)[C@@H](O)c2ccccc2-4)[C@@H]1O` was tested, and the mutagenic call [9] was “inactive; negative”.
With `CCCCOc1ccc2nc3cc(Cl)ccc3c(NCCCN(CC)CCCl)c2n1` the mutagenic call [3] was “active; positive”, the mutagenic call [7] was “inactive; negative” and the mutagenic call (Test System: AMES SALMONELLA TYPHIMURIUM, Strain/Indicator: TA1535, Metabolic Activation: NONE, Method: STANDARD PLATE) was “inactive; negative”. The mutagenic call (Test System: AMES SALMONELLA TYPHIMURIUM, Strain/Indicator: TA1536, Metabolic Activation: NONE, Method: STANDARD PLATE) was “active; positive”, the mutagenic call (Test System: AMES SALMONELLA TYPHIMURIUM, Strain/Indicator: TA1537, Metabolic Activation: NONE, Method: STANDARD PLATE) was “active; positive” and the mutagenic call (Test System: AMES SALMONELLA TYPHIMURIUM, Strain/Indicator: TA1538, Metabolic Activation: NONE, Method: STANDARD PLATE) was “active; positive”.
